Results taken from patent US10300058B2, “Tyrosine kinase inhibitor and uses thereof” (Xuanzhu Pharma Co., Ltd., priority 2014, dated 2019).

How the values were obtained:
EGFR (d746-750) = EGFR (d746-750) (Homo sapiens (Human), UniProt P00533, DEL746-750); test: Mobility Shift Assay, in vitro enzyme-inhibiting activity, EGFR (d746-750); format: biochemical; conditions: for IC50: Km ATP; for Selectivity WT/d746-750: ratio of IC50
Experimental: (§1) 1. Preparation of Reagents
(§2) 2. Preparation of a Compound Solution
(§3) (1) To the second well of a 96-well plate, 5 μL 10 mM compound (dissolved in DMSO) was added, and 95 μL 100% DMSO was added to prepare 100 μL 0.5 mM compound.
(§4) (2) To other wells, 60 μL 100% DMSO was added. 20 μL compound from the second well was added to the third well, and 4-fold dilution was further performed to get 10 diluted concentrations.
(§5) (3) To the first well and the twelfth well of the 96-well plate, 100 μL 100% DMSO was separately added, and the two wells were used as control wells.
(§6) (4) 10 μL from each well of the 96-well plate was added to another 96-well plate, and 90 μL 1-fold kinase buffer was added.
(§7) (5) 5 μL from the 96-well plate was added to another 384-well plate, for example, transferred from A1 well of the 96-well plate to A1 and A2 wells of the 384-well plate, and transferred from A2 well of the 96-well plate to A3 and A4 wells of the 384-well plate, and so on.
(§8) To 384-well plate, 10 μL 2.5-fold enzyme solution was added, and incubated at room temperature for 10 min.
(§9) (5) Kinase reaction and stop
(§10) After incubation at 28° C. for a period of time (depending on kinase), 25 μL stop solution was added.
(§11) 4. Data on percent conversion was read by Caliper.
(§12) (1) Data on enzyme activity was obtained by Caliper program;
(§13) (2) Inhibition rate of enzyme activity was calculated from the data on enzyme activity by the following formula: Inhibition rate(%)=(maximal value−the measured value of a test compound)/(maximal value-minimal value)×100,
(§14) wherein, the maximal value represents the measured value of DMSO control; and the minimal value represents the measured value of blank control.
(§15) (3) Calculation of IC50 value by XLFit excel.

wild-type EGFR (WT EGFR) = wild-type EGFR (WT EGFR) (Homo sapiens (Human), UniProt P00533); test: Mobility Shift Assay, in vitro enzyme-inhibiting activity, wild-type EGFR; format: biochemical; conditions: Km ATP
wild-type EGFR (WT EGFR), sequence (P00533 25-1210): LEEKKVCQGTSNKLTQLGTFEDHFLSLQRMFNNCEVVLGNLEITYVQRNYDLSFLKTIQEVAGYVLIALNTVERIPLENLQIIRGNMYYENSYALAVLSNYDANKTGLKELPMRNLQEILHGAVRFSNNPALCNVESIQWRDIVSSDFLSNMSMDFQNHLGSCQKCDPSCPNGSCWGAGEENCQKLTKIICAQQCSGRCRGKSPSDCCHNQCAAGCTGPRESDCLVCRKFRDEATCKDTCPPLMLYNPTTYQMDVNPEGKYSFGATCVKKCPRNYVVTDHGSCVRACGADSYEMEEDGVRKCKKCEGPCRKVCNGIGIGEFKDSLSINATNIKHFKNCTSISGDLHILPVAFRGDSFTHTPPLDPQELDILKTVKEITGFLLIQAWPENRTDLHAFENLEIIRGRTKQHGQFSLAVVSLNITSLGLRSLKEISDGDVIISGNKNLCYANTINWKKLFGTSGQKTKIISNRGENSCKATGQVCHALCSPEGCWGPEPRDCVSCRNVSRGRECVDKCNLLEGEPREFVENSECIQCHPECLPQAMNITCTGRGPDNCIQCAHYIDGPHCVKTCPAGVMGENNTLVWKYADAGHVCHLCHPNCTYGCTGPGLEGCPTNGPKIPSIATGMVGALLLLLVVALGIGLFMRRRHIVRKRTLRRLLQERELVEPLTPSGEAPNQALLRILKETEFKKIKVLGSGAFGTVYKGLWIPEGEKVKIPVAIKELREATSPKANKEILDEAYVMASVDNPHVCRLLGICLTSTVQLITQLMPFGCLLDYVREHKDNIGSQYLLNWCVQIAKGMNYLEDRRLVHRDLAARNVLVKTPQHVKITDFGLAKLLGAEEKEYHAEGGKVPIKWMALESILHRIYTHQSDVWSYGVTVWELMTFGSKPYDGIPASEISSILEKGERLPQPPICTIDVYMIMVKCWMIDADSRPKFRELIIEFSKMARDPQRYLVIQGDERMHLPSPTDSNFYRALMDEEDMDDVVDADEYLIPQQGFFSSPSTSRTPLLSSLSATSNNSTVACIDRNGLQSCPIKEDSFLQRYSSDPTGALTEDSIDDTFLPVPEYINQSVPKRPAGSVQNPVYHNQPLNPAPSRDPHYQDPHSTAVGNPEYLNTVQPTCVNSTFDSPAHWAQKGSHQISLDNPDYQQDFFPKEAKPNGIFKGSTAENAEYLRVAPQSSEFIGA
Experimental: as §1, §2, §3, §4, §5, §6, §7, §8, §9, §10, §11, §12, §13, §14, §15

EGFR T790M = EGFR T790M (Homo sapiens (Human), UniProt P00533, T790M); test: Mobility Shift Assay, in vitro enzyme-inhibiting activity, EGFR T790M; format: biochemical; conditions: for IC50: Km ATP; for Selectivity (WT/T790M): ratio of IC50
EGFR T790M, sequence (P00533 25-1210 T790M): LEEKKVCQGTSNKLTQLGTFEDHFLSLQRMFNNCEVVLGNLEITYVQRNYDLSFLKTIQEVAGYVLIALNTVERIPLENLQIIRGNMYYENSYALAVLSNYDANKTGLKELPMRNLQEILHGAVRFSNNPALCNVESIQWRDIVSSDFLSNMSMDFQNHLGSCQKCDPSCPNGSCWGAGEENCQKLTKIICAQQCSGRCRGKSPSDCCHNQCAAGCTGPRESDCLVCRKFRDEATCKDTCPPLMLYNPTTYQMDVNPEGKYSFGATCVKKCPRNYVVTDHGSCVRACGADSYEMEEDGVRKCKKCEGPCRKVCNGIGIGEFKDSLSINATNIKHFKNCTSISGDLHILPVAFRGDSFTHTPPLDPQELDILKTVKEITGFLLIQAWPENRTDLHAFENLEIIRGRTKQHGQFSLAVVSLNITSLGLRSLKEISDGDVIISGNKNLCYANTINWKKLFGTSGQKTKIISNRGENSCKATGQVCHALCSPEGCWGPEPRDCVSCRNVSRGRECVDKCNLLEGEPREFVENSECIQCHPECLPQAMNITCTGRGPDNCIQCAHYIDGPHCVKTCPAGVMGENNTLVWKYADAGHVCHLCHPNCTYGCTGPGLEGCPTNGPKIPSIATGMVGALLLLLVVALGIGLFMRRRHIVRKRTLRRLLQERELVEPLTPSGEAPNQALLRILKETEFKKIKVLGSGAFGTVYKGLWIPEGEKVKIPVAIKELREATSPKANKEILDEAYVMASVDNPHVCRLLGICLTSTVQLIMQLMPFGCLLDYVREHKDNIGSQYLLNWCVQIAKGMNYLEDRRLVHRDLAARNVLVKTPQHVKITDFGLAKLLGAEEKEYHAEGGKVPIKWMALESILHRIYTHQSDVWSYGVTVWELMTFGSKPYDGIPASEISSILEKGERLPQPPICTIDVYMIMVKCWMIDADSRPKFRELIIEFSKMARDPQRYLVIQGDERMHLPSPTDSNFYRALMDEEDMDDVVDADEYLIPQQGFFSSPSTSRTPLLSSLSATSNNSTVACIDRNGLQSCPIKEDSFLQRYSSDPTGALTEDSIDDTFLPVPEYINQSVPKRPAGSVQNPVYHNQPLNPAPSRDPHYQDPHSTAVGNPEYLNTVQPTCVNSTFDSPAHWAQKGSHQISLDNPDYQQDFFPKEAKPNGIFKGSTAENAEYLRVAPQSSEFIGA
Experimental: as §1, §2, §3, §4, §5, §6, §7, §8, §9, §10, §11, §12, §13, §14, §15

EGFR T790M-L858R = EGFR T790M-L858R (Homo sapiens (Human), UniProt P00533, L858R/T790M); test: Mobility Shift Assay, in vitro enzyme-inhibiting activity, EGFR T790M-L858R; format: biochemical; conditions: for IC50: Km ATP; for Selectivity WT/T790M-L858R: ratio of IC50
EGFR T790M-L858R, sequence (P00533 25-1210 T790M/L858R): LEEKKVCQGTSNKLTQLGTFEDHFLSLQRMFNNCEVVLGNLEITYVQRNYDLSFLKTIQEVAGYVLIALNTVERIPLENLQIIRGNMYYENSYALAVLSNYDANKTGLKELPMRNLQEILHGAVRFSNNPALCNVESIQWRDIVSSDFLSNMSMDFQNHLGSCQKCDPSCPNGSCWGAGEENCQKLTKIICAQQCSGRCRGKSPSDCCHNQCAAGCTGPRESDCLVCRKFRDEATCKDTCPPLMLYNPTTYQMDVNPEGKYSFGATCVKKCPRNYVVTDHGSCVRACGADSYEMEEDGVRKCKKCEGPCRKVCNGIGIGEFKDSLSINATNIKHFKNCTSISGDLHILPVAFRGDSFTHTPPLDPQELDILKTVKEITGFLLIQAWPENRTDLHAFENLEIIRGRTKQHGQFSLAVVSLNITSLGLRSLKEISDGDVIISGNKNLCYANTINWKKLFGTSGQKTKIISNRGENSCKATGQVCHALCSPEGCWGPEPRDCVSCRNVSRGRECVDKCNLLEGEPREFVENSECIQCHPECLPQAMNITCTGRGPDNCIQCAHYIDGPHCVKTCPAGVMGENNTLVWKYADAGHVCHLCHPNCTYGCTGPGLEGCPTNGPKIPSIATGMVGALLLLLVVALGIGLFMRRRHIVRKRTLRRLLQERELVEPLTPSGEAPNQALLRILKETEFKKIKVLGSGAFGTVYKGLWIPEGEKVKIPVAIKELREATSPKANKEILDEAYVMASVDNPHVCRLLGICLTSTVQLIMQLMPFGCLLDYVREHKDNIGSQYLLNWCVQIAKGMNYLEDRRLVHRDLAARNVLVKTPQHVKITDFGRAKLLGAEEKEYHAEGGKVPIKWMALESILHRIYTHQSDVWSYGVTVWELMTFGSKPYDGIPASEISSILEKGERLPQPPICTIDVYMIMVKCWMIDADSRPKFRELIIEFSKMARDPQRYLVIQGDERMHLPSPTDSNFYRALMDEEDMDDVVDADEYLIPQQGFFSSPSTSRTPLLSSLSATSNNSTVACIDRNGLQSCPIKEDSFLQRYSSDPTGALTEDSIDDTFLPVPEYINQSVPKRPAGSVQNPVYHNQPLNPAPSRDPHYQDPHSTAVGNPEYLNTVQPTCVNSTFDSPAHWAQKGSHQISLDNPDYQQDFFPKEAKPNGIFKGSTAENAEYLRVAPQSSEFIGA
Experimental: as §1, §2, §3, §4, §5, §6, §7, §8, §9, §10, §11, §12, §13, §14, §15

EGFR L858R = EGFR L858R (Homo sapiens (Human), UniProt P00533, L858R); test: Mobility Shift Assay, in vitro enzyme-inhibiting activity, EGFR L858R; format: biochemical; conditions: for IC50: Km ATP; for Selectivity WT/L858R: ratio of IC50
Experimental: as §1, §2, §3, §4, §5, §6, §7, §8, §9, §10, §11, §12, §13, §14, §15

[1] = system: A431 cell (wild-type EGFR gene); test: In vitro cytologic activity, Celltiter-Glo, A431 cells; format: cell-based; conditions: Homo sapiens, A-431, 72 h
Experimental: (§16) 1.1 Preparation of Cell Suspension
(§17) Culture medium was removed from culture bottle;
(§18) PBS was added to wash the cells; • pancreatin was added for digestion, and the cells were collected by centrifugation; • the cells were resuspended in a culture medium containing 10% fetal bovine serum, counted and adjusted to a concentration of 2×10^4/mL or 3×10^4/mL (cell viability must be greater than 90%); • the cell suspension was added to a 96-well plate, at 100 μL for each well, i.e., 2000/well for H1975 cell; 3000/well for A431 cell; and • the cells were cultured at 37° C. in 5% CO2 incubator overnight.
(§19) Dilution of a compound in DMSO (or water for injection) • (1) The compound was 5-fold diluted with DMSO from 10 mM to 2 mM, and then 4-fold diluted from 2 mM, to get 10 concentrations; • High control (HC, control without compound inhibition): 0.5% DMSO; • Low control (LC, control with compound inhibition): 1000 nM.
(§20) i. To each well, 99 μL growth medium containing 10% FBS was added, and then 1 μL diluted compound was added, the total volume of the well was […], and the final concentration of the compound was measured.
(§21) The test plate was left at room temperature, and equilibrated for 30 min. 80 μL culture medium was discarded. 60 μL CTG reagent (Celltiter-Glo kit) was added, and shaked for 2 min in a fast shaker, and was placed at room temperature for 10 min. The values were read by Envision instrument.

[2] = system: H1975 cell (EGFR-T790M/L858R double mutation); test: In vitro cytologic activity, Celltiter-Glo, H1975 cells; format: cell-based, human; conditions: for IC50: Homo sapiens, NCI-H1975, 72 h, 72 h, Celltiter-Glo; for Selectivity (A431/H1975): ratio of IC50
Experimental: as §16, §17, §18, §19, §20, §21

EGFR (d746-750), sequence (P00533 other isoform, or with tags, fused parts or gaps del 1-668/del 746-750 limits assumed): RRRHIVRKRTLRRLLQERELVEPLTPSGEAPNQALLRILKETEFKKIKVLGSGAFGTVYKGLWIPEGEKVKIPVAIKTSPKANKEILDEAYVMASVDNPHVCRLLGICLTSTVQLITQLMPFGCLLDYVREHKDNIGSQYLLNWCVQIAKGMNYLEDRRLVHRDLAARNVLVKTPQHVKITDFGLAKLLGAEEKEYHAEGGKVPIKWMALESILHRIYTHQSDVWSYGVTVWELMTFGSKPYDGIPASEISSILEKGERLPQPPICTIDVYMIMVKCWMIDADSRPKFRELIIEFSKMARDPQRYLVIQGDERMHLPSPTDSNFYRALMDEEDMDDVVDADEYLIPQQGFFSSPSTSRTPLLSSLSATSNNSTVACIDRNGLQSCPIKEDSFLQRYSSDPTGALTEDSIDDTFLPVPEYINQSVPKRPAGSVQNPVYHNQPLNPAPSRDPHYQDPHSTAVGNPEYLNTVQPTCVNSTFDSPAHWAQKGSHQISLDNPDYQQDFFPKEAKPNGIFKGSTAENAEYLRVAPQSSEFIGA

## C=CC(=O)Nc1cccc(Nc2nc(Nc3ccc(C4CCN(C(C)=O)CC4)cc3OC)ncc2C(F)(F)F)n1 [Compound 4, N-(6-((2-((4-(1-acetylpiperidin-4-yl)-2-methoxyphenyl)amino)-5-(trifluoromethyl)pyrimidin-4-yl)amino)pyridin-2-yl)acrylamide]
EGFR (d746-750); Table 7
  IC50: 40 nM
  Selectivity WT/d746-750: 10.6
wild-type EGFR (WT EGFR); Table 3
  IC50: 423 nM
wild-type EGFR (WT EGFR); Table 7
  IC50: 423 nM
EGFR T790M; Table 3
  IC50: 7.2 nM
  Selectivity (WT/T790M): 58.8
EGFR T790M; Table 7
  IC50: 7.2 nM
  Selectivity (WT/T790M): 58.8
EGFR T790M-L858R; Table 7
  IC50: 5.2 nM
  Selectivity WT/T790M-L858R: 81.3
EGFR L858R; Table 7
  IC50: 82 nM
  Selectivity WT/L858R: 5.2

## C=CC(=O)Nc1cccc(Nc2nc(Nc3cc4c(cc3OC)CN(C(C)=O)CC4)ncc2C(F)(F)F)c1 [Compound 11, N-(3-((2-((2-acetyl-7-methoxy-1,2,3,4-tetrahydroisoquinolin-6-yl)amino)-5-(trifluoromethyl)pyrimidin-4-yl)amino)phenyl)acrylamide]
wild-type EGFR (WT EGFR); Table 2
  IC50: 640 nM
[1]; Table 9
  IC50: 1770 nM
EGFR T790M; Table 2
  IC50: 13 nM
  Selectivity (WT/T790M): 49.2
[2]; Table 9
  IC50: 179 nM
  Selectivity (A431/H1975): 9.9

## C=CC(=O)Nc1cccc(Nc2nc(Nc3ccc(C4=CCN(C(C)=O)CC4)cc3OC)ncc2C(F)(F)F)c1 [Compound 3, N-(3-((2-((4-(1-acetyl-1,2,3,6-tetrahydropyridin-4-yl)-2-methoxyphenyl)amino)-5-(trifluoromethyl)pyrimidin-4-yl)amino)phenyl)acrylamide]
EGFR (d746-750); Table 5
  IC50: 51.4 nM
  Selectivity WT/d746-750: 14.2
wild-type EGFR (WT EGFR); Table 1
  IC50: 699 nM
wild-type EGFR (WT EGFR); Table 5
  IC50: 733 nM
EGFR T790M; Table 1
  IC50: 4.7 nM
  Selectivity (WT/T790M): 148.7
EGFR T790M-L858R; Table 5
  IC50: 6 nM
  Selectivity WT/T790M-L858R: 122.9
EGFR L858R; Table 5
  IC50: 154 nM
  Selectivity WT/L858R: 4.8

## C=CC(=O)Nc1cccc(Nc2nc(Nc3ccc(C4CCN(C)CC4)cc3OC)ncc2C(F)(F)F)c1 [Compound 29, N-(3-((2-((2-methoxy-4-(1-methylpiperidin-4-yl)phenyl)amino)-5-(trifluoromethyl)pyrimidin-4-yl)amino)phenyl)acrylamide]
wild-type EGFR (WT EGFR); Table 4, unit inferred
  IC50: 11 nM
[1]; Table 10, unit inferred
  IC50: 272 nM
EGFR T790M; Table 4, unit inferred
  IC50: 0.32 nM
EGFR T790M; Table 4
  Selectivity (WT/T790M): 34.4
[2]; Table 10, unit inferred
  IC50: 22.5 nM
[2]; Table 10
  Selectivity (A431/H1975): 12.1

## C=CC(=O)Nc1cccc(Nc2nc(Nc3ccc(C4CCN(C5COC5)CC4)cc3OC)ncc2C(F)(F)F)c1 [Compound 41, N-(3-((2-((2-methoxy-4-(1-(oxetan-3-yl)piperidin-4-yl)phenyl)amino)-5-(trifluoromethyl)pyrimidin-4-yl)amino)phenyl)acrylamide]
wild-type EGFR (WT EGFR); Table 4, unit inferred
  IC50: 82 nM
[1]; Table 10, unit inferred
  IC50: 247 nM
EGFR T790M; Table 4, unit inferred
  IC50: 1.4 nM
EGFR T790M; Table 4
  Selectivity (WT/T790M): 58.6
[2]; Table 10, unit inferred
  IC50: 28.5 nM
[2]; Table 10
  Selectivity (A431/H1975): 8.6

## C=CC(=O)Nc1cccc(Nc2nc(Nc3ccc(N4C[C@H]5CN(C(C)=O)C[C@H]5C4)cc3OC)ncc2C(F)(F)F)c1 [Compound 9-1, N-(3-((2-((4-((cis)-5-acetylhexahydropyrrolo[3,4-c]pyrrol-2(1H)-yl)-2-methoxyphenyl)amino)-5-(trifluoromethyl)pyrimidin-4-yl)amino)phenyl)acrylamide]
EGFR (d746-750); Table 7
  IC50: 92.7 nM
  Selectivity WT/d746-750: 6.0
wild-type EGFR (WT EGFR); Table 7
  IC50: 560 nM
EGFR T790M; Table 7
  IC50: 9 nM
  Selectivity (WT/T790M): 62.2
EGFR T790M-L858R; Table 7
  IC50: 12.6 nM
  Selectivity WT/T790M-L858R: 44.5
EGFR L858R; Table 7
  IC50: 119 nM
  Selectivity WT/L858R: 4.7

## C=CC(=O)Nc1cccc(Nc2nc(Nc3ccc(N4CC5CCC(C4)N5C(C)=O)cc3OC)ncc2C(F)(F)F)c1 [Compound 7, N-(3-((2-((4-(8-acetyl-3,8-diazabicyclo[3.2.1]octan-3-yl)-2-methoxyphenyl)amino)-5-(trifluoromethyl)pyrimidin-4-yl)amino)phenyl)acrylamide]
wild-type EGFR (WT EGFR); Table 4, unit inferred
  IC50: 332 nM
EGFR T790M; Table 4, unit inferred
  IC50: 6.2 nM
EGFR T790M; Table 4
  Selectivity (WT/T790M): 53.5
